Key:
luciferase = target: T1, luciferase (Photinus pyralis, UniProt P08659, K549A/L550V/N119G/N50D/S548I); assay: Acute effect on luciferase activity (cell lysate, 2 h); assay type: biochemical; conditions: 80 μM, 2-h treatment
T1 construct: expressed in transfected cells; host or cells: human hepatic stellate LX-2 cells transfected with pGL4.17-COL1A1P; lysate used
Experimental: Then, their anti-COL1A1 potencies were verified by testing the half maximal inhibition concentration (IC50) values upon COL1A1 expression expression in LX-2 cells. […] Then, compounds 4i, 4n and 4p with the lower IC50 values were selected as the key compounds for further studies.
Cells were maintained on Dulbecco’s Modified Eagle’s medium (DMEM), laid on 96-well plate. DMEM medium was supplemented with 10% fetal bovine serum (FBS) at 37 °C humidified atmosphere with 5% CO2. Furthermore, serum-free culture was required until the cells were confluent at 90−95%. 24 h later the cells were treated with a tested compound (40 and 80 μM) for 24 h. The COL1A1 promotor activity was detected by the Bright-Glo luciferase assay system. Alternatively, to test the acute effects of compound on luciferase activity, 24 h later the cells were lysed and the lysate was treated with a tested compound (80 μM) for 2 h, then the luciferase was detected by the Bright-Glo luciferase assay system (Promega, Madison, WI, USA).

[1] = LX-2 cell survival, sulforhodamine B (SRB) assay; assay type: cell-based; conditions: human, LX-2 cells
Experimental: LX-2 cell survival was measured by sulforhodamine B (SRB) assay. The cells were seeded in 96-well plates at the density of 2 × 10^4/well and cultured in DMEM/GlutaMAX I medium with 10% fetal bovine serum (FBS) with 5% CO2, 37 °C. The cells were treated by the aloperine derivates for 24 h, washed by PBS for three times. Then the cells were fixed with 10% (wt/vol) trichloroacetic acid for 1 h and stained with SRB for 0.5 h. Subsequently, the protein-bound dye was dissolved in 10 mM Tris base solution after removing excess SRB dye washing repeatedly with 1% (vol/vol) acetic acid, the optical density (OD) was determined at 510 nm with a microplate reader.

[2] = HepG2 cell survival, MTT assay; assay type: cell-based; conditions: human, HepG2 cells
Experimental: HepG2 cell survival was measured by MTT assay. HepG2 cells, at density of 6x10^3 cells/well in 96-well culture plates, were incubated with the aloperine derivates at various concentrations until the cells at 50% confluence for 24 h. 20 µL of the MTT (5 mg/mL) solution was added to each plate and incubated with 5% CO2, 37 °C for 4 h. Subsequently, withdrawing the culture supernatant containing MTT, 150 µL DMSO was used for dissolving the formazan crystal. The absorbance was measured using a microplate reader at 570 nm.

TGFB1 mRNA = assay: RT-PCR of TGFB1 mRNA in LX-2 cells; assay type: cell-based, human; conditions: TGF-β1 (2 ng/mL) stimulation, 24 h
Experimental: In the absence or presence of TGF-β1 (2 ng/mL) treatment, LX-2 cells were treated with key compounds 4n and 4p at concentrations of 6 μM and 12 μM, or 4i at a concentration of 12 μM, respectively.
Since the stimulation of TGF-β1 provokes the expression of a series of fibrosis genes, for example COL1A1 and TGFB1 [24, 25], the effects of key compounds on TGF-β1 expression were evaluated by RT-PCR and western blot assays. As shown in Figure 2B and Supplementary Table S1, the expression of TGFB1 mRNA was maintained at a low level, and the addition of a key compound seemed to have little effect on its expression.
LX-2 cells were laid on 6-well plate and cultured in DMEM supplemented with 10% fetal bovine serum (FBS) in a 5% CO2 atmosphere at 37 °C. And serum-free culture was required until the cells reached 90−95% confluence. After 24 h, cells were incubated with […] concentrations of aloperine derivatives in the presence of 2 ng/mL of TGF-β1 for 24 h. Total RNA of the LX-2 cells was isolated using TRIzol reagent, purified using NucleoSpin RNA Clean-up. Reverse transcription was performed with Transcriptor first strand cDNA synthesis kit. Subsequently, the cDNA levels was determined by ABI 7500 Fast Real-Time PCR System using TaqMan probes of COL1A1, TGF-β1, α-SMA, and GAPDH (sequence not disclosed by ABI) and FastStart Universal Probe master mix (Roche, Indianapolis, IN, USA).

T1 sequence (P08659 whole entry N50D/N119G/S548I/K549A/L550V): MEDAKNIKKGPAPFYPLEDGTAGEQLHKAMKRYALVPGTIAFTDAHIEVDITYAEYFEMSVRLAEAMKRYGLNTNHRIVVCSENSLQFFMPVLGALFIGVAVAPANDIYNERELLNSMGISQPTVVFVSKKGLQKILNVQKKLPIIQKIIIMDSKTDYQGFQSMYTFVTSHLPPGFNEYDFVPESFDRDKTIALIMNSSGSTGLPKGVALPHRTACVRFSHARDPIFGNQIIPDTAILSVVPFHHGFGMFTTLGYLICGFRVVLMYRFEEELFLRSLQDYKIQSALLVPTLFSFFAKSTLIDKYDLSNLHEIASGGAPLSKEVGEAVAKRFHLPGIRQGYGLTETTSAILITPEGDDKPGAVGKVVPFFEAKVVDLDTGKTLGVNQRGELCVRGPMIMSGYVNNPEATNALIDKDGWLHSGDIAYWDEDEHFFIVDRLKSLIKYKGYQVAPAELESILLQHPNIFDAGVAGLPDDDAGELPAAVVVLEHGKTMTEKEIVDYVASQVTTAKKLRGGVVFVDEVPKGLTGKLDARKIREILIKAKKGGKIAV

Structure (SMILES) | Acute effect on luciferase activity (luciferase) | CC50 at 24 h [1] [µM] | CC50 at 24 h [2] [µM] | Inhibitory rate of TGFB1 mRNA expression (TGFB1 mRNA; 6 μM) [%] | Inhibitory rate of TGFB1 mRNA expression (TGFB1 mRNA; 12 μM) [%]
O=C(CN1CCCC2=C[C@H]3C[C@H](CN4CCCC[C@H]34)[C@@H]21)N(c1ccccc1)c1ccc2ccccc2c1 [4n, 12N-(N’-(Naphthalen-2-yl)-N’-phenyl)carbamoylmethyl aloperine] | minimal inhibition | 17.1 ± 5.4 | 35.2 ± 4.1 | 57.7 | 60.0
O=C(CN1CCCC2=C[C@H]3C[C@H](CN4CCCC[C@H]34)[C@@H]21)N1c2ccccc2Oc2ccccc21 [4p, 12N-N′-Phenoxazinylcarbamoylmethyl aloperine] | minimal inhibition | 34.8 ± 2.9 | 43.7 ± 2.7 | 60.8 | 63.8

— publication PMC7663597, “Structure–Activity Relationship of Aloperine Derivatives as New Anti–Liver Fibrogenic Agents” (Molecules, 2020)
